For assay [1], the system named is Compound 102-induced UCP1 expression. As to the kind of experiment: Effect of inhibitors on Compound 102-induced UCP1 expression. Format: cell-based, human. The note with it: over 4 days; LY294002 20 NM, H89 20 μM; FIG. 9. As to the method: (§1) Human adipocyte precursor cells isolated from subcutaneous abdominal fat were purchased from LaCell, LLC, New Orleans, La. Cells were seeded and grown to confluence in DMEM/F12 with 10% heat inactivated FBS. Differentiation to mature adipocytes was induced in medium composed of 70% DMEM and 30% DMEMF12 supplemented with 3% FBS, 1 μM dexamethasone (Sigma D4902), […] biotin (Sigma B4639), 100 nM insulin (Sigma 15500), 20 μM pantothenate (Sigma P5155), 5 μM rosiglitazone (AK Scientific F325) and […] (Sigma 15879) for four days. Cells were maintained in medium composed of 70% DMEM and 30% DMEMF12 supplemented with 3% FBS, 1 μM dexamethasone, 33 μM biotin, 100 nM insulin, and 20 NM pantothenate for seven days before experimental treatment.
Total RNA was isolated from adipocyte cultures grown in 12-well plates using Trizol and Qiagen RNAeasy kits. Reverse transcriptase and PCR were conducted in one reaction with the reverse PCR primer priming cDNA synthesis using SuperScript® III Platinum® One-Step Quantitative RT-PCR System with Rox from Invitrogen (11745). Predesigned Taqman primer-probe sets were purchased from Applied Biosystems for the following human transcript sequences: UCP1 (Hs249211), PPARGC1α (HS527078), PPARU (Hs103110), CPT1b (Hs439777), and GLUT4/SLC2A4 (Hs380691). Aplicons were designed to span an intron-exon junction to avoid amplification of genomic sequences. […]

In assay [2] the test system is UCP-1 adipose tissue protein. As to the kind of experiment: UCP-1 adipose tissue protein in db/db mice (Western blot densitometry). Type of assay: in vivo. The note with it: 100 mg/kg qd for 3 weeks, tissue 4 hours after last dose, FIG. 10. On the procedure: Adipose tissue was collected 4 hours after the last dose of Compound 102.
The nature of assay [3]: Phase 2a clinical trial of Compound 102 (fasting plasma glucose, body weight). Format: in vivo, human. As to the method: This Phase 2a clinical trial was conducted in the U.S. (103 subjects) and Korea (27 subjects). […] Subjects were treated with one of four active doses (100 mg once-daily (qd), 100 mg twice-daily (bid), 200 mg qd, or 200 mg bid) of Compound 102 or placebo for 4 weeks after having 3 weeks of placebo run-in. […] Body weights, as secondary endpoints, were measured at Day 1 and Day 29 and at the follow-up visit 1 week after treatment stopped, at Day 35. […] The effect was most pronounced in the U.S. subjects and in the 100 qd dose group.

The subject of assay [4] is human adipocytes. As to the kind of experiment: Beige adipocyte gene expression by RT-PCR in primary cultured human adipocytes. Format: cell-based. As to the method: as §1
A solution of 10 mM Compound 102 was prepared in DMSO and diluted to 60 μM or 30 μM in maintenance medium without dexamethasone for cell treatment. […]
Total RNA was isolated from adipocyte cultures grown in 12-well plates using Trizol and Qiagen RNAeasy kits. Reverse transcriptase and PCR were conducted in one reaction with the reverse PCR primer priming cDNA synthesis using SuperScript® III Platinum® One-Step Quantitative RT-PCR System with Rox from Invitrogen (11745). Predesigned Taqman primer-probe sets were purchased from Applied Biosystems for the following human transcript sequences: UCP1 (Hs249211), PPARGC1α (HS527078), PPARU (Hs103110), CPT1b (Hs439777), and GLUT4/SLC2A4 (Hs380691). Aplicons were designed to span an intron-exon junction to avoid amplification of genomic sequences. Each sample RT-PCR assay was conducted in duplicate.

The test system of assay [5] is primary cultured human adipocytes. Put plainly: GLUT4 and UCP1 protein expression in primary cultured human adipocytes. Type of assay: cell-based. The note with it: 7-day treatment period. On the procedure:
as §1
A solution of 10 mM Compound 102 was prepared in DMSO and diluted to 60 μM or 30 μM in maintenance medium without dexamethasone for cell treatment. In some experiments, cells were treated with 20 μM menthol (Sigma M2772).

A short description of assay [6]: Rodent oral glucose tolerance test. Format: in vivo. The note with it: FIG. 13. An excerpt:
In contrast, menthol potentiates the insulin sensitizing action of Compound 102 in a rodent oral glucose tolerance test.

Setting [7] is: human adipocytes, day 4, FIG. 3.

Consider `O=S(=O)(NCCNC/C=C/c1ccc(Br)cc1)c1cccc2cnccc12` [Compound H89], for which the “Compound 102-induced UCP1 mRNA in presence of inhibitor” value in assay [1] is on record as “reduced UCP1 mRNA to levels of unstimulated controls or lower”.
With `Cc1cccc(Oc2c[nH]c(=O)[nH]c2=O)c1` [Compound 102, 5-(m-tolyloxy)pyrimidine-2,4(1H,3H)-dione], in assay [2], the “levels of UCP-1 adipose tissue protein” value is recorded as “Increased levels”. Further, the “body weight loss over the 4-week treatment period” value in assay [3] (Day 1 to Day 29, secondary endpoint) is “statistically significant improvements in body weight loss”. Also, in assay [3] (follow-up 1 week after treatment stopped, FIG. 2), the “body weight 1 week after treatment (Day 35) compared to Day 29” value is “all groups except for the 200 mg bid group showed continued loss”. For the same compound, the “fasting plasma glucose (FPG)” value in assay [3] (subjects with HbA1c 7-10%, 100 mg qd, 100 mg bid, 200 mg qd or 200 mg bid for 4 weeks, FIG. 1) is listed as “progressive reduction”. For the same compound, in assay [4] (7-day treatment period, FIG. 4), the “GLUT4 mRNA” value was “continued to increase” and the “UCP1 mRNA” value is “continued to increase”. Moreover, in assay [4] (FIG. 7), the “expression of the UCP1 activator PGC-1β” value is listed as “induced” and the “expression of the UCP1 activator PPARα” value is “induced”. In addition, the “expression of TRPM8 menthol receptor mRNA” value in assay [4] (FIG. 8) was “induced”. For the same compound, in assay [4] (setting [7]), the “expression of Adipose Triglyceride Lipase (ATGL)” value was “significant increases”, the “expression of Carnitine palmitoyltransferase-Ib (CPT-1b)” value is on record as “significant increases”, the “expression of GLUT4” value is “significant increases” and the “expression of Transient Potential Melastatin 8 Receptor (TRPM8R)” value is recorded as “significant increases”. The “expression of UCP-1” value in assay [4] (setting [7]) is “significant increases”. Moreover, the “expression of GLUT4 protein” value in assay [5] (FIG. 5) was “continued to exist”. The “expression of UCP1 protein” value in assay [5] (FIG. 6) was “continued to exist”.
Regarding `COc1cc(CN(CCN)C(=O)OC(C)c2ccccc2)ccc1OCc1ccccc1` (centres unmarked) [PBMC], the “Compound 102-induced UCP1 mRNA in presence of inhibitor” value in assay [1] is recorded as “reduced UCP1 mRNA to levels of unstimulated controls or lower”.
Regarding `CC1CCC(C(C)C)C(O)C1` (centres unmarked) [menthol, reference compound], the “insulin sensitization or glycemic control” value in assay [6] is listed as “does effect insulin sensitization or glycemic control”. Moreover, in assay [4] (7 day treatment, 30 μM menthol, 30 NM Compound 102, versus Compound 102 alone, FIG. 12 panel a), the UCP1 expression entry is “did not induce expression”.

The record behind these values is patent publication US10786503B2, “Treatment of adipocytes” (Melior Pharmaceuticals I, Inc., priority 2017, dated 2020).
